Assay results taken from patent US8178658B2 (Dow AgroSciences, LLC, priority 2008, dated 2012).

Experiments:
[1] = system: beet armyworm (BAW; Spodoptera exigua: Lepidoptera); experiment: 128-well diet tray assay on beet armyworm (BAW 50); format: in vivo; conditions: for BAW 50 ug/cm2: 128-well diet tray assay, 50 μg/cm^2 of test compound on diet, second instar BAW larvae, mortality class; for pest or weed control at 50 µg/cm2, 50 µg/cm2: Spodoptera exigua, 144 h, read-out: BAW 50 ug/cm2
Procedure, shortened: (§1)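 HTS: eggs on diet topped with 12 μg cpd/well; dark, 29° C; mortality day 6; mean of 6 reps. Tray: 3–5 L2 larvae/well; diet dosed 50 μg/cm^2; 25° C, 14:10 L:D; 6 d; mean of 8 wells. Scored as ≥50% mortality or not.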

[2] = system: beet armyworm (BAW; Spodoptera exigua: Lepidoptera); experiment: 96-well microtiter plate-based high throughput (HTS) diet bioassay on beet armyworm (BAW HTS); format: in vivo; conditions: for BAW HTS: BAW eggs, 12 μg test compound per well, mortality at 6 d post-treatment, mortality class; for pest or weed control at 12 µg/well, 12 µg/well: Spodoptera exigua, 144 h, read-out: BAW HTS
Procedure, shortened: as §1

[3] = 96-well microtiter plate HTS diet assay

With `CCO[C@@H]1[C@@H](OC)[C@H](C)O[C@@H](OC(=O)Nc2ccc(-c3nn(-c4ccc(C(F)(F)F)cc4)c(=O)o3)cc2)[C@@H]1OC` [Compound 249] the “BAW 50 ug/cm2” value [1] was “B (either (1) the compound was tested and less than 50 percent mortality was observed or (2) the compound was not tested)”, the “BAW HTS” value ([2]; 96-well HTS diet assay) was “B (either (1) the compound was tested and less than 50 percent mortality was observed or (2) the compound was not tested)” and the “BAW HTS” value [2, 3] was “B (either (1) the compound was tested and less than 50 percent mortality was observed or (2) the compound was not tested)”.

With `CCO[C@@H]1[C@@H](OC)[C@H](C)O[C@@H](OC(=O)N(C)c2ccc(-c3ncn(-c4ccc(OC(F)(F)F)cc4)n3)cc2)[C@@H]1OC` [Compound 250, methyl {4-[1-(4-trifluoromethoxyphenyl)-1H-[1,2,4]triazol-3-yl]-phenyl}-carbamic acid (2S,3R,4R,5S,6S)-4-ethoxy-3,5-dimethoxy-6-methyl-tetrahydropyran-2-yl ester] the “BAW 50 ug/cm2” value [1] was “A (the compound was tested and at least 50 percent mortality was observed)”, the pest or weed control at 50 µg/cm2, 50 µg/cm2 [1] was > 50% and the “BAW HTS” value [2, 3] was “B (either (1) the compound was tested and less than 50 percent mortality was observed or (2) the compound was not tested)”. For the same compound, the pest or weed control at 12 µg/well, 12 µg/well [2] was < 50%.

For `CCO[C@@H]1[C@@H](OC)[C@H](C)O[C@@H](OC(=O)N(C)c2ccc(-c3ncn(-c4ccc(OC(F)(F)C(F)(F)F)cc4)n3)cc2)[C@@H]1OC` [Compound 251, methyl {4-[1-(4-pentafluoroethoxy-phenyl)-1H-[1,2,4]triazol-3-yl]-phenyl}-carbamic acid (2S,3R,4R,5S,6S)-4-ethoxy-3,5-dimethoxy-6-methyl-tetrahydropyran-2-yl ester], the “BAW 50 ug/cm2” value [1] was “A (the compound was tested and at least 50 percent mortality was observed)”, the pest or weed control at 50 µg/cm2, 50 µg/cm2 [1] was > 50% and the “BAW HTS” value [2, 3] was “B (either (1) the compound was tested and less than 50 percent mortality was observed or (2) the compound was not tested)”. The pest or weed control at 12 µg/well, 12 µg/well [2] was < 50%.

For `CCCO[C@@H]1[C@@H](OC)[C@H](C)O[C@@H](OC(=O)N(CC)c2ccc(-c3ncn(-c4ccc(OC(F)(F)C(F)(F)F)cc4)n3)cc2)[C@@H]1OC` [Compound 253, ethyl {4-[1-(4-pentafluoroethoxy-phenyl)-1H-[1,2,4]triazol-3-yl]-phenyl}-carbamic acid (2S,3R,4R,5S,6S)-4-propoxy-3,5-dimethoxy-6-methyl-tetrahydropyran-2-yl ester], the “BAW 50 ug/cm2” value [1] was “A (the compound was tested and at least 50 percent mortality was observed)”, the pest or weed control at 50 µg/cm2, 50 µg/cm2 [1] was > 50% and the “BAW HTS” value [2, 3] was “A (the compound was tested and at least 50 percent mortality was observed)”. The pest or weed control at 12 µg/well, 12 µg/well [2] was > 50%.

`CCO[C@@H]1[C@@H](OC)[C@H](C)O[C@@H](OC(=O)N(COC)c2ccc(-c3ncn(-c4ccc(OC(F)(F)F)cc4)n3)cc2)[C@@H]1OC` [Compound 254, methoxymethyl {4-[1-(4-trifluoromethoxyphenyl)-1H-[1,2,4]triazol-3-yl]-phenyl}-carbamic acid (2S,3R,4R,5S,6S)-4-ethoxy-3,5-dimethoxy-6-methyl-tetrahydropyran-2-yl ester] was tested, and the “BAW 50 ug/cm2” value [1] was “A (the compound was tested and at least 50 percent mortality was observed)”, the pest or weed control at 50 µg/cm2, 50 µg/cm2 [1] was > 50% and the “BAW HTS” value [2, 3] was “A (the compound was tested and at least 50 percent mortality was observed)”. The pest or weed control at 12 µg/well, 12 µg/well [2] was > 50%.

With `CCO[C@@H]1[C@@H](OC)[C@H](C)O[C@@H](OC(=O)N(COC)c2ccc(-c3ncn(-c4ccc(OC(F)(F)C(F)(F)F)cc4)n3)cc2)[C@@H]1OC` [Compound 255, methoxymethyl {4-[1-(4-pentafluoroethoxyphenyl)-1H-[1,2,4]triazol-3-yl]-phenyl}-carbamic acid (2S,3R,4R,5S,6S)-4-ethoxy-3,5-dimethoxy-6-methyl-tetrahydropyran-2-yl ester] the “BAW 50 ug/cm2” value [1] was “A (the compound was tested and at least 50 percent mortality was observed)”, the pest or weed control at 50 µg/cm2, 50 µg/cm2 [1] was > 50% and the “BAW HTS” value [2, 3] was “B (either (1) the compound was tested and less than 50 percent mortality was observed or (2) the compound was not tested)”. The pest or weed control at 12 µg/well, 12 µg/well [2] was < 50%.
